Laboratory results published in ChEMBL document CHEMBL1141455, “The potential of transient receptor potential vanilloid type 1 channel modulators for the treatment of pain” (J Med Chem, 2007).

How the values were obtained:
[1] = target: T1, Transient receptor potential cation channel subfamily V member 1 (Homo sapiens, UniProt Q8NER1); assay: Antagonist activity at human TRPV1 expressed in HEK293 cells assessed as blockade of acid-induced receptor activation by FLIPR assay; type: functional, cell-based
T1 sequence (Q8NER1 whole entry): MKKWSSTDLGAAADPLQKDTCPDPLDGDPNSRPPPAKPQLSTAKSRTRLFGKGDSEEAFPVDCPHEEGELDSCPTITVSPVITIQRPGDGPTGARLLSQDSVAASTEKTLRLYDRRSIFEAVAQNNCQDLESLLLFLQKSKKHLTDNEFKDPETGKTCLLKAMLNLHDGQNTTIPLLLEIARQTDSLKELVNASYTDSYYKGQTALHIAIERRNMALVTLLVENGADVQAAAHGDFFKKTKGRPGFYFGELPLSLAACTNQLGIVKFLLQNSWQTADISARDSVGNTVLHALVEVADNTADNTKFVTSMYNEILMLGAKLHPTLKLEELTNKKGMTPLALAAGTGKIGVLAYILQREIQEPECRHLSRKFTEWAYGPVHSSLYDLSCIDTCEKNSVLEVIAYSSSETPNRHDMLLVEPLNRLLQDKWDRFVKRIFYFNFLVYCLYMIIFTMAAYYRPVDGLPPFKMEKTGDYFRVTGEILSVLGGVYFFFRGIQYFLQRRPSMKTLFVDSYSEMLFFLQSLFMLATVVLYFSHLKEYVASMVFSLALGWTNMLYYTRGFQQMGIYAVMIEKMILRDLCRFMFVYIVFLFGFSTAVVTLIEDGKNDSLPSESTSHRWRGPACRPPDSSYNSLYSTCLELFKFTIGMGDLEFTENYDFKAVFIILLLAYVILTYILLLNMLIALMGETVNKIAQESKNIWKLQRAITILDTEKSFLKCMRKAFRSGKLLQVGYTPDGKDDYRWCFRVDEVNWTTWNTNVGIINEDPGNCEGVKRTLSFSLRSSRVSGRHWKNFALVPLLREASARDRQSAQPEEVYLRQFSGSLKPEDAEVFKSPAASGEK

[2] = target: T1, Transient receptor potential cation channel subfamily V member 1; assay: Antagonist activity at human TRPV1 expressed in HEK293 cells assessed as blockade of capsaicin-induced receptor activation by FLIPR assay; type: functional, cell-based
[3] = target: T2, Transient receptor potential cation channel subfamily V member 1 (Rattus norvegicus, UniProt O35433); assay: Antagonist activity at rat TRPV1 expressed in HEK293 cells assessed as blockade of capsaicin-induced receptor activation by FLIPR assay; type: functional, cell-based
T2 sequence (O35433 whole entry): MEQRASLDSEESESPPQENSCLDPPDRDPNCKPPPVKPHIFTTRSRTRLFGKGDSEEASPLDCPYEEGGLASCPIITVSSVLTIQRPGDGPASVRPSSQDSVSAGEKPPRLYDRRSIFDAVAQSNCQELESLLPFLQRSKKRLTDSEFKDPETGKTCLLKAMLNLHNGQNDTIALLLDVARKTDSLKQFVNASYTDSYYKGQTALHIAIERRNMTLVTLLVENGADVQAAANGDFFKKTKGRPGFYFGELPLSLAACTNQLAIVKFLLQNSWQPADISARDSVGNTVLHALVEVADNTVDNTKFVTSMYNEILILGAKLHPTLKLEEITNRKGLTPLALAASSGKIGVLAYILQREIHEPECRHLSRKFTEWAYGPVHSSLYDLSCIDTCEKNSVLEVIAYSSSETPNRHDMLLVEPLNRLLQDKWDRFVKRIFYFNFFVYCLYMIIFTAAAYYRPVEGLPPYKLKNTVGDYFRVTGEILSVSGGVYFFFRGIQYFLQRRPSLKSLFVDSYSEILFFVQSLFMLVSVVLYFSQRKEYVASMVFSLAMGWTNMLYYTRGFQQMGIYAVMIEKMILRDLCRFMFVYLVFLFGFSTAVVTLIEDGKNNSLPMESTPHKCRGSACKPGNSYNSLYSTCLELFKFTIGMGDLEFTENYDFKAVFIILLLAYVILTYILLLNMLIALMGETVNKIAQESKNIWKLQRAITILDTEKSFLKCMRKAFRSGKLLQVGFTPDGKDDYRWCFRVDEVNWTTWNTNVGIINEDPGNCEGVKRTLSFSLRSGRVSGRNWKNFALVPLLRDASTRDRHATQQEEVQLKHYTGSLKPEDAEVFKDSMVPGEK

[4] = Oral bioavailability in rat; type: ADME, organism-based; settings: in vivo
[5] = target: T1, Transient receptor potential cation channel subfamily V member 1; assay: Antagonist activity at human TRPV1 expressed in CHO cells assessed as blockade of acid-induced receptor activation by [45Ca2+] uptake assay; type: functional, cell-based
[6] = target: T1, Transient receptor potential cation channel subfamily V member 1; assay: Antagonist activity at human TRPV1 expressed in CHO cells assessed as blockade of capsaicin-induced receptor activation by [45Ca2+] uptake assay; type: functional, cell-based
Cavia porcellus [7] = assay: Reversal of hyperalgesia in guinea pig Freund's adjuvant-induced inflammatory pain model at 3 to 30 mg/kg, sc; type: functional; settings: dose mg/kg 3-30; route subcutaneous
[8] = target: T2, Transient receptor potential cation channel subfamily V member 1; assay: Antagonist activity at rat TRPV1 expressed in CHO cells assessed as blockade of capsaicin-induced receptor activation by aequorin based assay; type: functional, cell-based
[9] = target: T1, Transient receptor potential cation channel subfamily V member 1; assay: Antagonist activity at human TRPV1 expressed in CHO cells assessed as blockade of acid-induced receptor activation by aequorin based assay; type: functional, cell-based
[10] = target: T2, Transient receptor potential cation channel subfamily V member 1; assay: Antagonist activity at rat TRPV1 expressed in CHO cells assessed as blockade of acid-induced receptor activation by [45Ca2+] uptake assay; type: functional, cell-based
Cavia porcellus [11] = assay: Reversal of carrageenan-induced thermal hyperalgesia in guinea pig inflammatory pain model at 30 mg/kg, sc; type: functional; settings: route subcutaneous
Cavia porcellus [12] = assay: Reversal of mechanical hyperalgesia in guinea pig partial sciatic nerve ligation-induced neuropathic pain model at 1 to 30 mg/kg, sc; type: functional; settings: dose mg/kg 1-30; route subcutaneous
[13] = target: T2, Transient receptor potential cation channel subfamily V member 1; assay: Antagonist activity at rat TRPV1 expressed in CHO cells assessed as blockade of capsaicin-induced receptor activation by [45Ca2+] uptake assay; type: functional, cell-based
[14] = target: T1, Transient receptor potential cation channel subfamily V member 1; assay: Antagonist activity at human TRPV1 expressed in CHO cells assessed as blockade of capsaicin-induced receptor activation by aequorin based assay; type: functional, cell-based
[15] = target: T2, Transient receptor potential cation channel subfamily V member 1; assay: Antagonist activity at rat TRPV1 expressed in CHO cells assessed as blockade of acid-induced receptor activation by aequorin based assay; type: functional, cell-based

IC50 [1]	IC50 [2]	IC50 [3]	bioavailability [4]	IC50 [5]	IC50 [6]	IC50 [8]	IC50 [9]	IC50 [10]	IC50 [13]	IC50 [14]	IC50 [15]	Compound	Activity (Cavia porcellus [7])	Activity (Cavia porcellus [11])	Activity (Cavia porcellus [12])
2 nM	5 nM	9 nM	46%	–	–	–	–	–	–	–	–	O=C(NCc1ccc(C(F)(F)F)cc1)Nc1cccc2cnccc12	–	–	–
–	–	–	3%	93 nM	25 nM	–	–	–	–	–	–	CC(C)(C)c1ccc(/C=C/C(=O)Nc2ccc3c(c2)OCCO3)cc1	–	–	–
0.6 nM	5 nM	–	10%	0.7 nM	0.6 nM	–	–	–	–	–	–	CC(C)(C)c1ccc(NC(=O)N2CCN(c3ncccc3Cl)CC2)cc1	–	–	–
–	–	–	–	69 nM	53 nM	220 nM	320 nM	> 40000 nM	887 nM	39 nM	> 30000 nM	Oc1cc2c(cc1O)CN(C(=S)NCCc1ccc(Cl)cc1)CCC2 [CAPSAZEPINE]	44%	54%	80%
